According to patent US9963448B2, “Bicyclic inhibitors of PAD4” (Padlock Therapeutics, Inc., priority 2015, dated 2018):
Like-named read-outs stand apart in the source and are kept apart here.

Columns and labels:
hPAD4 = hPAD4 (Homo sapiens, UniProt Q9UM07); test: hPAD4 RFMS (RapidFire mass spectrometry) PAD4 inhibition assay; format: biochemical; settings: hPAD4 enzyme, RFMS readout;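 as to hPAD4 RFMS pIC50: grade E means pIC50 at most 4 and F means pIC50 4.0 to 5.0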
Description: (§1) Compounds of the present invention were assayed as inhibitors of PAD4 using the assay protocol described below.
(§2) Compound stock solutions were stored at RT. […] Final assay conditions were as follows:
(§3) Total incubation time: 65 mins at 37° C.
(§4) Stop solution: 40 μl 5% TCA in ACN
(§5) The compound numbers correspond to the compound numbers in Table 1. […] The term pIC50=−log(IC50). […] “NA” stands for “not assayed.”

mPAD4 = mPAD4 (Mus musculus, UniProt Q9Z183); test: mPAD4 RFMS PAD4 inhibition assay; format: biochemical; settings: mPAD4, RFMS readout;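 as to mPAD4 RFMS pIC50: grade E means pIC50 at most 4 and F means pIC50 4.0 to 5.0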
Chain of mPAD4 (Q9Z183 whole entry): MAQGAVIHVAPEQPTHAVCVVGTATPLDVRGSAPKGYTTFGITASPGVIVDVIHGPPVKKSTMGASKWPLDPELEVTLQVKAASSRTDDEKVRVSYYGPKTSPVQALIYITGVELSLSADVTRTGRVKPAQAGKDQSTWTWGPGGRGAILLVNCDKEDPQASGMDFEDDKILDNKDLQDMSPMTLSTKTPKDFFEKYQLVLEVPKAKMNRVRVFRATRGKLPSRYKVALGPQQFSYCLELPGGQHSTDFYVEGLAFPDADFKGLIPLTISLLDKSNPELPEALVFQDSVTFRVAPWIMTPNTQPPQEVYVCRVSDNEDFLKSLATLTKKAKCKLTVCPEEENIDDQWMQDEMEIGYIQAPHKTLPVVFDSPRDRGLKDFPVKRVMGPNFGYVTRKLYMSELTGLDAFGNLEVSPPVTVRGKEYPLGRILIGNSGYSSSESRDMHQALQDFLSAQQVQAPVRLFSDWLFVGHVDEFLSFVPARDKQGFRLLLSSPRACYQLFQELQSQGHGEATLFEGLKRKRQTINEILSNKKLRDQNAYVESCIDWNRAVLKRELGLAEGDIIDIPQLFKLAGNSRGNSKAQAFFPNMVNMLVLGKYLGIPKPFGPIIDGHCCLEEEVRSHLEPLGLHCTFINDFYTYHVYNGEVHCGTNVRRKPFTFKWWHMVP
Description: as §1, §2, §3, §4, §5

[1] = pIC50=−log(IC50), read-out: hPAD4 RFMS pIC50 (converted)
[2] = pIC50=−log(IC50), read-out: mPAD4 RFMS pIC50 (converted)

Chain of hPAD4 (Q9UM07 whole entry): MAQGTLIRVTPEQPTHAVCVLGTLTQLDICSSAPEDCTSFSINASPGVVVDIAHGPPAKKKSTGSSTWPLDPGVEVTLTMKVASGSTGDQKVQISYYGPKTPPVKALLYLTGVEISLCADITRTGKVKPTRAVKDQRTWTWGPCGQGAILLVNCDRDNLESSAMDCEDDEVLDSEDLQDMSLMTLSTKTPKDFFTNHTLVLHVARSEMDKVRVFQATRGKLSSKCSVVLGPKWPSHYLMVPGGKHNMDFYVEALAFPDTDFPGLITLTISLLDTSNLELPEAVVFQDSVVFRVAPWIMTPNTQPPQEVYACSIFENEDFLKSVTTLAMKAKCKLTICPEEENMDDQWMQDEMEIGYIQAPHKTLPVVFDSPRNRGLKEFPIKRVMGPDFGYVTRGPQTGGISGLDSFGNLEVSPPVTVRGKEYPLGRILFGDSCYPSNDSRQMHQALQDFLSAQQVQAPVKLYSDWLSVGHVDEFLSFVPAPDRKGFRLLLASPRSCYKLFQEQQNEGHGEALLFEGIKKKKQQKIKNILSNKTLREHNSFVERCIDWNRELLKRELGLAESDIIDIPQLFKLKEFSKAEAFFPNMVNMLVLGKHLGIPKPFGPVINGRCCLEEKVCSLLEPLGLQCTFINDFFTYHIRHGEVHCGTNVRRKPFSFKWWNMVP

SMILES	IC50 (hPAD4; [1]) [nM]	IC50 (hPAD4; read-out: hPAD4 RFMS IC50) [nM]	IC50 (mPAD4; [2]) [nM]	IC50 (mPAD4; read-out: mPAD4 RFMS IC50) [nM]	hPAD4 RFMS pIC50 (hPAD4; pIC50=−log(IC50))	mPAD4 RFMS pIC50 (mPAD4; pIC50=−log(IC50))
COc1cc(C(=O)N2CC[C@H]3CCN[C@H]3C2)cc2nc(-c3cc4cncnc4n3CC3CC3)n(C)c12 [Compound I-12, 5-[(3aR,7aR)-octahydro-1H-pyrrolo[2,3-c]pyridine-6-carbonyl]-2-[7-(cyclopropylmethyl)-7H-pyrrolo[2,3-d]pyrimidin-6-yl]-7-methoxy-1-methyl-1H-1,3-benzodiazole]	1000 to 10000	1000 to 5000	10000 to 100000	> 10000	–	–
CO[C@@H]1CCN(C(=O)c2cc(OC(F)F)c3c(c2)nc(-c2cc4cccnc4n2CC2CC2)n3C)C[C@@H]1N [Compound I-133]	–	> 10000	–	1000 to 5000	F (pIC50 of 4.0-5.0)	G (pIC50 of 5.0-6.0)
COc1ccc2cc(-c3nc4cc(C(=O)N5C[C@H](N)C[C@@H](F)C5)cc(OC)c4n3C)n(CC3CC3)c2n1 [Compound I-123]	< 1000	< 1000	< 1000	< 1000	–	–
COc1cc(C(=O)N2CCC(OC(F)F)C(N)C2)cc2nc(-c3cc4cccnc4n3CC3CC3)n(C)c12 (racemic) [Compound I-86, rac-(3R,4S)-1-{2-[1-(cyclopropylmethyl)-1H-pyrrolo[2,3-b]pyridin-2-yl]-7-methoxy-1-methyl-1H-1,3-benzodiazole-5-carbonyl}-4-(difluoromethoxy)piperidin-3-amine]	< 1000	< 1000	< 1000	< 1000	–	–
CCn1c(-c2nc3cc(C(=O)N4CCC[C@@H](N)C4)cc(F)c3n2CC)cc2cccnc21 [Compound I-151]	1000 to 10000	1000 to 5000	1000 to 10000	5000 to 10000	–	–
COc1cc(C(=O)N2CC3COCC3(CN)C2)cc2nc(-c3cc4cccnc4n3CC3CC3)n(C)c12 (racemic) [Compound I-96]	10000 to 100000	> 10000	10000 to 100000	> 10000	–	–
COC1CCN(C(=O)c2ccc3c(c2)nc(-c2cc4cccnc4n2CC2CC2)n3C)CC1N (racemic) [Compound I-62, 1-{2-[1-(cyclopropylmethyl)-1H-pyrrolo[2,3-b]pyridin-2-yl]-1-methyl-1H-1,3-benzodiazole-5-carbonyl}-4-methoxypiperidin-3-amine]	1000 to 10000	1000 to 5000	1000 to 10000	5000 to 10000	–	–
COc1cc(C(=O)N2CC[C@@H](F)[C@@H](N)C2)cc2nc(-c3cc4cccnc4n3CC3CC3)n(C)c12 [Compound I-91]	< 1000	< 1000	< 1000	< 1000	–	–
COc1cc(C(=O)N2C[C@H](N)CC[C@@H]2C)cc2nc(-c3cc4cccnc4n3CC3CC3)n(C)c12 [Compound I-87]	< 1000	< 1000	< 1000	< 1000	–	–
COc1cc(C(=O)N2CCC[C@@H](N)C2)cc2nc(-c3cc4cc(C#N)cnc4n3CC3CC3)n(C)c12 [Compound I-132]	< 1000	< 1000	1000 to 10000	1000 to 5000	–	–
CO[C@@H]1CCN(C(=O)c2cc(OC(F)F)c3c(c2)nc(-c2cc4cccnc4n2CC2CC2)n3C)C[C@@H]1N [Compound I-124]	10000 to 100000	> 10000	1000 to 10000	5000 to 10000	–	–
CCn1c(-c2nc3cc(C(=O)N4C[C@@H]5CC[C@H]4[C@H]5N)cc(OC)c3n2C)cc2ccc(OC)nc21 [Compound I-140]	1000 to 10000	5000 to 10000	10000 to 100000	> 10000	–	–
COc1cc(C(=O)N2CC3CC(N)C2C3)cc2nc(-c3cc4cccnc4n3CC3CC3)n(C)c12 (racemic) [Compound I-99]	> 100000	> 10000	> 100000	> 10000	–	–
CCn1c(-c2nc3cc(C(=O)N4C[C@H]5CC[C@@H]4[C@@H]5N)ccc3n2C)cc2cccnc21 [Compound I-152]	1000 to 10000	1000 to 5000	1000 to 10000	5000 to 10000	–	–
COc1ccc2cc(-c3nc4cc(C(=O)N5CCC[C@@H](N)C5)cc(OC(F)F)c4n3C)n(CC3CC3)c2n1 [Compound I-104, (3R)-1-{2-[1-(cyclopropylmethyl)-6-methoxy-1H-pyrrolo[2,3-b]pyridin-2-yl]-7-(difluoromethoxy)-1-methyl-1H-1,3-benzodiazole-5-carbonyl}piperidin-3-amine]	< 1000	< 1000	< 1000	< 1000	–	–
COc1cc(C(=O)N2C[C@H]3COC[C@@]3(CN)C2)cc2nc(-c3cc4cccnc4n3CC3CC3)n(C)c12 [Compound I-125]	10000 to 100000	> 10000	10000 to 100000	> 10000	–	–
COc1cc(C(=O)N2C[C@@H](N)C[C@H](F)C2)cc2nc(-c3cc4cccnc4n3CC3(C)CC3)n(C)c12 [Compound I-93, (3S,5S)-5-Fluoro-1-(7-methoxy-1-methyl-2-{1-[(1-methylcyclopropyl)methyl]-1H-pyrrolo[2,3-b]pyridin-2-yl}-1H-1,3-benzodiazole-5-carbonyl)piperidin-3-amine]	1000 to 10000	1000 to 5000	1000 to 10000	1000 to 5000	–	–

Other lines, results leading:

IC50 (hPAD4; [1]) [nM]	IC50 (hPAD4; read-out: hPAD4 RFMS IC50) [nM]	IC50 (mPAD4; [2]) [nM]	IC50 (mPAD4; read-out: mPAD4 RFMS IC50) [nM]	hPAD4 RFMS pIC50 (hPAD4; pIC50=−log(IC50))	mPAD4 RFMS pIC50 (mPAD4; pIC50=−log(IC50))	SMILES
< 1000	< 1000	1000 to 10000	5000 to 10000	–	–	COCCn1c(-c2nc3cc(C(=O)N4C[C@H]5CC[C@@H]4[C@@H]5N)ccc3n2C)cc2ccc(OC)nc21 [Compound I-192]
< 1000	< 1000	< 1000	< 1000	–	–	COc1cc(C(=O)N2C[C@H]3CC[C@@H]2[C@@H]3N)cc2nc(-c3cc4cccnc4n3CC3CC3)n(C[C@@H]3CCOC3)c12 [Compound I-232]
1000 to 10000	1000 to 5000	1000 to 10000	5000 to 10000	–	–	Cn1c(-c2cc3cccnc3n2CC2CC2)nc2cc(C(=O)N3C[C@H]4CC[C@@H]3[C@@H]4N)c(F)cc21 [Compound I-194]
< 1000	< 1000	1000 to 10000	1000 to 5000	–	–	Cn1c(-c2cc3cccnc3n2CC2CC2)nc2cc(C(=O)N3CCC[C@@H](N)C3)cc(F)c21 [Compound I-166]
< 1000	< 1000	< 1000	< 1000	–	–	COc1cc(C(=O)N2C[C@H]3CC[C@@H]2[C@@H]3N)cc2nc(-c3cc4cccnc4n3CC3CC3)n(C[C@H]3C[C@@H](OC)C3)c12 [Compound I-236]
1000 to 10000	1000 to 5000	< 1000	< 1000	–	–	CCn1c(-c2nc3cc(C(=O)N4CCC[C@@H](N)C4)cc(OC)c3n2C[C@H]2C[C@@](C)(OC)C2)cc2cccnc21 [Compound I-163]
< 1000	< 1000	< 1000	< 1000	–	–	CCn1c(-c2nc3cc(C(=O)N4C[C@H]5CC[C@@H]4[C@@H]5N)cc(OC)c3n2C[C@H]2C[C@@](C)(OC)C2)cc2ccc(OC)nc21 [Compound I-206]
< 1000	< 1000	< 1000	< 1000	–	–	CCn1c(-c2nc3cc(C(=O)N4C[C@H]5CC[C@@H]4[C@@H]5N)cc(OC)c3n2C[C@H]2C[C@@](C)(O)C2)cc2cccnc21 [Compound I-155]
1000 to 10000	1000 to 5000	< 1000	< 1000	–	–	COCCn1c(-c2cc3cccnc3n2CC2CC2)nc2cc(C(=O)N3CCC[C@@H](N)C3)cc(OC)c21 [Compound I-177]
1000 to 10000	1000 to 5000	< 1000	< 1000	–	–	CCn1c(-c2nc3cc(C(=O)N4CCC[C@@H](N)C4)cc(OC)c3n2CC2CC(F)(F)C2)cc2cccnc21 [Compound I-180]
< 1000	< 1000	< 1000	< 1000	–	–	COc1cc(C(=O)N2C[C@H]3CC[C@@H]2[C@@H]3N)cc2nc(-c3cc4cccnc4n3CC3CC3)n(CC(F)F)c12 [Compound I-233]
< 1000	< 1000	< 1000	< 1000	–	–	CCn1c(-c2nc3cc(C(=O)N4CCC[C@@H](N)C4)cc(OC)c3n2C)cc2ccc(C(F)(F)F)nc21 [Compound I-184]
< 1000	< 1000	< 1000	< 1000	–	–	COc1ccc2cc(-c3nc4cc(C(=O)N5C[C@H]6CC[C@@H]5[C@@H]6N)cc(OC)c4n3C)n(CC3CC3)c2n1 [Compound I-188]
< 1000	< 1000	1000 to 10000	1000 to 5000	–	–	COc1cc(C(=O)N2C[C@H]3CC[C@@H]2[C@@H]3N)cc2nc(-c3cc4cnc(C)nc4n3CC3CC3)n(C)c12 [Compound I-202, (1R,4R,7R)-2-{2-[7-(Cyclopropylmethyl)-2-methyl-7H-pyrrolo[2,3-d]pyrimidin-6-yl]-7-methoxy-1-methyl-1H-1,3-benzodiazole-5-carbonyl}-2-azabicyclo[2.2.1]heptan-7-amine]
1000 to 10000	5000 to 10000	1000 to 10000	1000 to 5000	–	–	COc1cc(C(=O)N2C[C@H](N)CC[C@@H]2CO)cc2nc(-c3cc4cccnc4n3CC3CC3)n(C)c12 (single isomer, unassigned) [Compound I-228]
–	> 10000	–	> 10000	E/F	E/F	COc1cc(C(=O)N2C[C@H](N)CC[C@H]2CO)cc2nc(-c3cc4cccnc4n3CC3CC3)n(C)c12 (racemic) [Compound I-220, Rac-[(2R,5S)-5-amino-1-{2-[1-(cyclopropylmethyl)-1H-pyrrolo[2,3-b]pyridin-2-yl]-7-methoxy-1-methyl-1H-1,3-benzodiazole-5-carbonyl}piperidin-2-yl]methanol]
